Experimental data from patent publication US20240041042A1, “1-(PYRIDYL)-5-AZINYLPYRAZOLE DERIVATIVES, AND THEIR USE FOR CONTROL OF UNDESIRED PLANT GROWTH” (Bayer Aktiengesellschaft, priority 2020, published 2024).
Read-outs that look alike come from different tables or passages of the source.

How the values were obtained:
Format in all cases: in vivo
[1] = system: Digitaria sanguinalis (DIGSA); test: Pre-emergence herbicidal action against DIGSA
Summary of the method: (§1)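 Pre-emergence soil-surface spray, WP/EC formulation, 0.5% additive, 600 l/ha water, rates of 320 g/ha or lower. Greenhouse, ~3 wk. Visual score, % of untreated control (100% = plants dead, 0% = like control).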

[2] = system: Alopecurus myosuroides (ALOMY); test: Pre-emergence herbicidal action against ALOMY; conditions: 320 g/ha; scored visually after about 3 weeks; 100% = plants have died
Summary of the method: as §1

[3] = system: Polygonum convolvulus (POLCO); test: Pre-emergence herbicidal action against POLCO; conditions: dosage 320 g/ha
Summary of the method: as §1

[4] = system: Zea mays (ZEAMX); conditions: pre-emergence, 80 g/ha, crop plant compatibility, in comparison to untreated controls
Summary of the method: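 Crop injury rated visually in percent against untreated plants roughly 3 weeks after treatment (0% no effect, 100% plants dead). Compounds, as WP or EC with 0.5% additive in 600 l/ha water, were applied to the covering soil right after sowing; greenhouse growth. Suffixes a, b, c denote different dosages.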

[5] = system: Viola tricolor (VIOTR); test: Pre-emergence herbicidal action against VIOTR
Summary of the method: as §1

[6] = system: Echinochloa crus-galli (ECHCG); test: Pre-emergence herbicidal action against ECHCG; conditions: dosage 320 g/ha
Summary of the method: as §1

[7] = system: Amaranthus retroflexus (AMARE); test: Pre-emergence herbicidal action against AMARE; conditions: 320 g/ha, visual scoring after about 3 weeks vs untreated controls
Summary of the method: as §1

[8] = system: Zea mays (ZEAMX); conditions: for Post-emergence action against ZEAMX in %: crop plant compatibility, 80 g/ha, effect vs untreated controls
Summary of the method: (§2)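 Effects were read visually as % versus untreated controls (0% = no effect, 100% = death) about 3 weeks post-treatment. Application was a post-emergence spray at the one-leaf stage of WP/EC formulations with 0.5% additive at 600 l/ha. Different dosages are denoted a, b and c.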

[9] = system: Oryza sativa (ORYSA); conditions: crop plant compatibility
Summary of the method: as §2

[10] = system: Verconica persica (VERPE); test: Pre-emergence herbicidal action against VERPE; conditions: dosage 320 g/ha
Summary of the method: as §1

[11] = system: Setaria viridis (SETVI); test: Pre-emergence herbicidal action against SETVI; conditions: dosage 320 g/ha
Summary of the method: as §1

[12] = system: Abutilon theophrasti (ABUTH); test: Post-emergence herbicidal action against ABUTH; conditions: 80 g/ha, visual rating about 3 weeks after treatment vs untreated controls (100% = plants have died, 0% = like control plants)
Summary of the method: (§3)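 Values are percent visual activity (0% like control, 100% plants dead) after about 3 weeks in the greenhouse. Treatment: post-emergence spray at one-leaf stage, 600 l/ha spray volume, 0.5% additive, doses 320 g/ha or lower.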

[13] = system: Setaria viridis (SETVI); test: Post-emergence herbicidal action against SETVI; conditions: dosage 80 g/ha
Summary of the method: as §3

[14] = system: Matricaria inodora (MATIN); test: Pre-emergence herbicidal action against MATIN; conditions: dosage 320 g/ha
Summary of the method: as §1

[15] = system: Alopecurus myosuroides (ALOMY); test: Post-emergence herbicidal action against ALOMY; conditions: visual rating about 3 weeks after treatment vs untreated controls (100% = plants have died, 0% = like control plants)
Summary of the method: as §3

[16] = system: Amaranthus retroflexus (AMARE); test: Post-emergence herbicidal action against AMARE
Summary of the method: as §3

[17] = system: Pharbitis purpurea (PHBPU); test: Post-emergence herbicidal action against PHBPU
Summary of the method: as §3

[18] = system: Matricaria inodora (MATIN); test: Post-emergence herbicidal action against MATIN; conditions: dosage 320 g/ha
Summary of the method: as §3

[19] = system: Verconica persica (VERPE); test: Post-emergence herbicidal action against VERPE; conditions: 320 g/ha, VERPE
Summary of the method: as §3

[20] = system: Polygonum convolvulus (POLCO); test: Post-emergence herbicidal action against POLCO
Summary of the method: as §3

[21] = system: Viola tricolor (VIOTR); test: Post-emergence herbicidal action against VIOTR; conditions: 320 g/ha
Summary of the method: as §3

[22] = system: Lolium rigidum (LOLRI); test: Pre-emergence herbicidal action against LOLRI; conditions: dosage 320 g/ha
Summary of the method: as §1

[23] = system: Avena fatua (AVEFA); test: Post-emergence herbicidal action against AVEFA; conditions: 320 g/ha, visual rating about 3 weeks after treatment
Summary of the method: as §3

[24] = system: Lolium rigidum (LOLRI); test: Post-emergence herbicidal action against LOLRI; conditions: dosage 320 g/ha
Summary of the method: as §3

[25] = system: Digitaria sanguinalis (DIGSA); test: Post-emergence herbicidal action against DIGSA; conditions: 320 g/ha, visual rating about 3 weeks after treatment
Summary of the method: as §3

[26] = 80 g/ha, effect in comparison to untreated controls
[27] = 320 g/ha, effect in comparison to untreated controls
[28] = 320 g/ha, visual rating about 3 weeks after treatment

CCOC(=O)CN(C)S(=O)(=O)NC(=O)COc1nn(-c2ncccc2F)c(-c2ccc(F)nc2)c1Br [Example I-54]
Pre-emergence action against DIGSA in % ([1]; 80 g/ha, visual scoring after about 3 weeks vs untreated controls): 100% | Pre-emergence action against DIGSA in % ([1]; dosage 320 g/ha): 100% | Pre-emergence action against ALOMY [2]: 100% | Pre-emergence action against POLCO in % [3]: 90% | Pre-emergence action against ZEAMX in % [4]: 0% | Pre-emergence action against VIOTR in % ([5]; 320 g/ha, Viola tricolor): 100% | Pre-emergence action against VIOTR in % ([5]; dosage 80 g/ha): 100% | Pre-emergence action against ECHCG in % [6]: 100% | Pre-emergence action against AMARE in % [7]: 100% | Post-emergence action against ZEAMX in % (crop plant compatibility) ([8]; 20 g/ha, ZEAMX, effect in comparison to untreated controls): 0% | Post-emergence action against ORYSA in % ([9]; 20 g/ha, effect vs untreated controls): 0% | Post-emergence action against ORYSA in % [9, 26]: 0% | Pre-emergence action against VERPE in % [10]: 100% | Pre-emergence action against SETVI in % [11]: 100% | Post-emergence action against ABUTH in % [12]: 80% | Post-emergence action against SETVI in % [13]: 80% | Pre-emergence action against MATIN in % [14]: 100% | Post-emergence action against ALOMY in % ([15]; 80 g/ha): 90% | Post-emergence action against AMARE in % ([16]; 80 g/ha, visual rating about 3 weeks after treatment vs untreated controls (100% = plants have died, 0% = like control plants)): 80%

CCOC(=O)COc1nn(-c2ccccn2)c(-c2ccc(Cl)nc2)c1Cl [Example I-241]
Post-emergence action against PHBPU in % ([17]; dosage 80 g/ha): 80% | Post-emergence action against PHBPU in % ([17]; dosage 320 g/ha): 90% | Pre-emergence action against DIGSA in % ([1]; dosage 320 g/ha): 90% | Pre-emergence action against ALOMY [2]: 80% | Pre-emergence action against ZEAMX in % [4]: 0% | Post-emergence action against MATIN in % [18]: 80% | Post-emergence action against VERPE in % [19]: 80% | Post-emergence action against POLCO in % ([20]; dosage 80 g/ha): 80% | Post-emergence action against POLCO in % ([20]; dosage 320 g/ha): 80% | Post-emergence action against VIOTR in % [21]: 80% | Pre-emergence action against LOLRI in % [22]: 90% | Pre-emergence action against AMARE in % [7]: 90% | Post-emergence action against ZEAMX in % [8]: 0% | Post-emergence action against ORYSA in % [9, 26]: 0% | Post-emergence action against ORYSA in % [9, 27]: 0% | Post-emergence action against AMARE in % [16, 28]: 80%

COC(=O)[C@@H](C)Oc1nn(-c2ccccn2)c(-c2ccc(Cl)nc2)c1Cl [Example I-237]
Post-emergence action against AVEFA in % [23]: 80% | Post-emergence action against PHBPU in % ([17]; dosage 80 g/ha): 80% | Post-emergence action against PHBPU in % ([17]; dosage 320 g/ha): 90% | Pre-emergence action against DIGSA in % ([1]; dosage 320 g/ha): 90% | Pre-emergence action against ALOMY [2]: 90% | Pre-emergence action against POLCO in % [3]: 80% | Pre-emergence action against ZEAMX in % [4]: 0% | Post-emergence action against POLCO in % ([20]; dosage 320 g/ha): 80% | Post-emergence action against LOLRI in % [24]: 80% | Post-emergence action against VIOTR in % [21]: 80% | Pre-emergence action against LOLRI in % [22]: 90% | Pre-emergence action against AMARE in % [7]: 100% | Post-emergence action against ZEAMX in % [8]: 10% | Post-emergence action against ORYSA in % [9, 26]: 0% | Post-emergence action against ORYSA in % [9, 27]: 20% | Post-emergence action against DIGSA in % [25]: 90% | Post-emergence action against ALOMY in % ([15]; 320 g/ha): 80% | Post-emergence action against AMARE in % [16, 28]: 90%
